# What was measured:
# Experiment in all cases: relative viability (nuclei count vs DMSO), 5 days (fraction); higher = more cells survive
# BAY61-3606 + Trametinib = compound: COC1=C(C=C(C=C1)C2=CC3=NC=CN3C(=N2)NC4=C(C=CC=N4)C(=O)N)OC [BAY61-3606] + CC(=O)Nc1cccc(-n2c(=O)n(C3CC3)c(=O)c3c(Nc4ccc(I)cc4F)n(C)c(=O)c(C)c32)c1 [Trametinib] (partner 0.02 µM)
# Summary of the method: (§1)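 Medians of duplicate plates are given as relative viability. That measure is the nuclei count in treated wells divided by the count in vehicle wells. Counts were taken on 4× images of lung cancer cell lines in 1536-well plates, 5 days after pin-tool dosing the day after seeding with one drug alone or a fixed anchor-drug dose plus five library-drug doses (not always all listed) in √10 steps.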
# BAY61-3606 + Phenformin = compound: COC1=C(C=C(C=C1)C2=CC3=NC=CN3C(=N2)NC4=C(C=CC=N4)C(=O)N)OC [BAY61-3606] + N=C(N)NC(=N)NCCc1ccccc1 [Phenformin] (partner 250 µM)
# Summary of the method: as §1
# BAY61-3606 + Decitabine = compound: COC1=C(C=C(C=C1)C2=CC3=NC=CN3C(=N2)NC4=C(C=CC=N4)C(=O)N)OC [BAY61-3606] + Nc1ncn([C@H]2C[C@H](O)[C@@H](CO)O2)c(=O)n1 [Decitabine] (partner 2 µM)
# Summary of the method: as §1
# Doxorubicin + Navitoclax = compound: COc1cccc2c1C(=O)c1c(O)c3c(c(O)c1C2=O)C[C@@](O)(C(=O)CO)C[C@@H]3O[C@H]1C[C@H](N)[C@H](O)[C@H](C)O1 [Doxorubicin] + CC1(C)CCC(c2ccc(Cl)cc2)=C(CN2CCN(c3ccc(C(=O)NS(=O)(=O)c4ccc(N[C@H](CCN5CCOCC5)CSc5ccccc5)c(S(=O)(=O)C(F)(F)F)c4)cc3)CC2)C1 [Navitoclax] (partner 0.5 µM)
# Summary of the method: as §1
Cell Line,relative viability (BAY61-3606 + Trametinib; first compound 0.02 µM),relative viability (BAY61-3606 + Trametinib; first compound 0.06325 µM),relative viability (BAY61-3606 + Trametinib; first compound 0.2 µM),relative viability (BAY61-3606 + Trametinib; first compound 0.6325 µM),relative viability (BAY61-3606 + Trametinib; first compound 2 µM),relative viability (BAY61-3606 + Phenformin; first compound 0.02 µM),relative viability (BAY61-3606 + Phenformin; first compound 0.06325 µM),relative viability (BAY61-3606 + Phenformin; first compound 0.2 µM),relative viability (BAY61-3606 + Phenformin; first compound 0.6325 µM),relative viability (BAY61-3606 + Phenformin; first compound 2 µM),relative viability (BAY61-3606 + Decitabine; first compound 0.02 µM),relative viability (BAY61-3606 + Decitabine; first compound 0.06325 µM),relative viability (BAY61-3606 + Decitabine; first compound 0.2 µM),relative viability (BAY61-3606 + Decitabine; first compound 0.6325 µM),relative viability (BAY61-3606 + Decitabine; first compound 2 µM),relative viability (Doxorubicin + Navitoclax; first compound 0.001 µM),relative viability (Doxorubicin + Navitoclax; first compound 0.003162 µM),relative viability (Doxorubicin + Navitoclax; first compound 0.01 µM),relative viability (Doxorubicin + Navitoclax; first compound 0.03162 µM),relative viability (Doxorubicin + Navitoclax; first compound 0.1 µM)
NCI-H2023,0.571,0.64,0.518,0.587,0.413,0.491,0.369,0.386,0.438,0.322,0.221,0.297,0.237,0.266,0.19,0.956,1.05,0.886,0.482,0.16
NCI-H322M,0.533,0.522,0.542,0.499,0.486,0.824,0.71,0.812,0.773,0.626,0.747,0.666,0.662,0.706,0.657,1.18,1.19,1.15,1.31,1.26
NCI-H1792,0.574,0.361,0.353,0.412,0.396,0.37,,0.336,0.544,0.333,0.605,0.572,0.547,0.617,0.493,0.634,0.556,0.62,0.582,0.597
HCC-827,0.511,0.585,0.539,0.583,0.608,0.392,0.435,0.389,0.358,0.347,0.327,0.321,0.352,0.317,0.308,1.03,1.03,1.06,1.1,1.03
LU99A,0.485,0.57,0.534,0.503,0.47,0.938,0.759,0.735,0.755,0.708,0.926,1.01,0.966,0.804,0.559,0.783,0.919,0.867,0.554,0.801
LC-2-ad,0.911,0.961,0.979,0.942,0.902,0.613,0.539,0.592,0.6,0.563,0.849,0.772,0.775,0.778,0.92,0.386,0.384,0.567,0.496,0.506
NCI-H460,0.153,0.173,0.134,0.117,0.104,0.549,0.48,0.494,0.493,0.106,0.508,0.572,0.43,0.448,0.382,1.07,1.18,0.945,0.0444,0.0158
HOP-62,,0.416,0.414,0.456,0.336,0.629,0.645,0.635,0.667,0.534,,0.2,0.228,0.266,0.22,1.06,0.927,0.988,0.944,1.01
NCI-H441,0.491,0.417,0.363,0.483,0.371,0.818,0.934,0.782,0.972,0.652,0.249,0.223,0.242,0.256,0.253,,0.688,0.351,0.308,0.423
NCI-H1993,0.498,0.507,0.544,0.538,0.518,0.547,0.502,0.545,0.493,0.543,0.632,0.622,0.542,0.536,0.601,0.947,0.876,0.884,1.01,0.889
NCI-H1734,0.708,0.667,0.636,0.671,0.568,0.446,0.338,0.288,0.354,0.244,0.551,0.512,0.503,0.504,0.388,0.788,1.02,0.847,0.696,0.84
NCI-H1666,0.828,0.973,0.822,0.792,0.768,0.544,0.538,0.524,0.531,0.491,0.784,0.655,0.658,0.737,0.686,0.882,0.953,0.55,0.282,0.275
NCI-H647,0.479,0.496,0.413,0.551,0.319,0.562,0.294,0.496,0.393,0.29,0.382,0.433,0.391,0.416,0.256,1.17,1.4,0.992,0.65,0.517
LCLC-97TM1,0.207,0.195,0.203,0.187,0.205,0.419,0.441,0.455,0.415,0.451,0.223,0.222,0.247,0.223,0.228,0.284,0.411,0.524,0.398,0.331
LOU-NH91,0.842,0.766,0.826,0.794,0.706,0.716,0.697,0.695,0.702,0.649,0.809,0.805,0.847,0.838,0.746,,0.561,0.711,0.444,0.405
RERF-LC-KJ,0.868,0.846,0.901,0.866,0.676,0.417,0.404,0.424,0.467,0.343,0.766,0.717,0.654,0.659,0.556,1.05,0.765,1.12,,1.05
NCI-H1437,0.537,0.456,0.523,0.602,0.462,0.345,0.312,0.304,0.283,0.284,0.579,0.602,0.564,0.563,0.582,1.03,1.12,1.02,0.75,0.379
NCI-H2087,0.228,0.196,0.202,0.178,0.2,0.432,0.463,0.44,0.411,0.384,0.352,0.291,0.295,0.269,0.229,0.973,1.05,1.05,0.967,0.918

# — the supplement of paper PMC10307832
